Results as given in patent US7629383B2, “Double esters” (Drug Discovery Laboratory AS, priority 2001, dated 2009).
Like-named read-outs stand apart in the source and are kept apart here.

Columns and labels:
[1] = test system: Staphylococcus aureus; assay: Antibacterial effect on agar gels; type: cell-based; details: same amount (10 mg)
Procedure: The antibacterial effects of azelaic acid and the azelaic acid derivatives of Examples 7, 12 and 13 on Staphylococcus aureus were tested on agar gels.

[2] = cited from earlier work
[3] = Clinical testing of creams, indication skin cancer; type: in vivo, human; details: one person, skin cancer in the face
Procedure: A person with skin cancer in the face (one lesion above the nose) was treated with photodynamic therapy (5-ALA methyl ester, available from Photocure ASA, Oslo, Norway). The outcome of the treatment was very good. After about one year they observed a new lesion in the same area.

Row | SMILES | inhibiting zones on agar gel [1] | further results
1 | CCOC(=O)OC(C)OC(=O)CCCCCCCC(=O)OC(C)OC(=O)OCC (centres unmarked) [Example 7, bis-[1-[ethoxycarbonyloxy]-ethyl]nonanedioate] | large inhibiting zones | 
2 | CCCC(=O)OCOC(=O)CCCCCCCC(=O)OCOC(=O)CCC [Example 12, bis-(butanoyloxymethyl)nonanedioate] | large inhibiting zones | 
3 | O=C(O)CCCCCCCC(=O)O [azelaic acid, nonanedioic acid] | no inhibiting effect | dose absorbed ([2]; administered orally): about 60%; dose absorbed ([2]; administered topically): about 3.6%; absorbed azelaic acid excreted into the urine ([2]; within 12 hours): 60%
4 | CCCCCC(=O)OCOC(=O)CCCCCCCC(=O)OCOC(=O)CCCCC [Example 13, bis-(hexanoyloxymethyl) nonanedioate] | large inhibiting zones | 
5 | COC(=O)CCC(=O)CN [5-ALA methyl ester] |  | outcome of photodynamic therapy [3]: very good
